Patent publication US8457712B2, “Multi-mode medical device system and methods of manufacturing and using same” (Wisconsin Alumni Research Foundation, priority 2005, dated 2013)

Experiment: Diffusion of a fluorescent probe in swollen gelatin gel by FRAP
Format: physicochemical
From the text: To assess the stability of DTPA[Gd(III)] in the gelatin coating, the diffusion of a fluorescence probe in gelatin was studied by the technique of fluorescence recovery after photobleaching (FRAP). The instrument and data analysis scheme are described in Kim, S. H. and Yu, H., J. Phys. Chem. 1992, 96, 4034, which is hereby fully incorporated by reference. Fluorescein was used as the fluorescence probe due, in part, to its molecular size being roughly the same as that of DTPA[Gd(III)]. The focus of the study was to examine the possible retardation effects of gelatin concentration and cross-link density on the diffusion, which was determined at room temperature, i.e., below the gel point of gelatin. The diffusion of fluorescein probe slows down with the increase of gelatin concentration. The diffusion coefficient decreases from 1.5×10-10 to 9×10-12 […]-1 when the concentration of gelatin increases from 9% to 40%. […] Accordingly, the probe diffusion is more likely controlled by the concentration of gelatin rather than the cross-link density. On the other hand, the cross-link density may determine the swelling ratio of gelatin, i.e., the concentration of gelatin in aqueous solution. […]

time to diffuse out of the gelatin coating (estimated for coating thickness 60 μm and diffusion coefficient 9×10-12 m2s-1)	fluorescence signal remaining in gelatin films (after soaking in water for 18 hours, including films not cross-linked)	Compound
about 67 seconds		O=C(O)CN(CCN(CC(=O)O)CC(=O)O)CCN(CC(=O)O)CC(=O)O [DTPA, diethylenetriaminepentaacetic acid]
	still fluorescence signal	O=C1OC2(c3ccc(O)cc3Oc3cc(O)ccc32)c2ccccc21 [fluorescein]
